Data from publication PMC3977580 (Biochemistry, 2014).

Biological target: T1, SaMTAN (5′-methylthioadenosine/S-adenosylhomocysteine nucleosidase) (Staphylococcus aureus, UniProt Q99TQ0)
T1 sequence (Q99TQ0 1-228): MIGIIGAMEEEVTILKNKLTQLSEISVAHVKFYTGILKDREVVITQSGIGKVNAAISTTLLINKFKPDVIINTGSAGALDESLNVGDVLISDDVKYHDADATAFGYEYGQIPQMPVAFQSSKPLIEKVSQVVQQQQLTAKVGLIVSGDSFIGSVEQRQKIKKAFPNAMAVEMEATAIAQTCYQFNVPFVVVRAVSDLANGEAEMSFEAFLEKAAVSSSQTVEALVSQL
Experiment: ITC
Format: binding

A Kd of 9 nM was found for CSC[C@H]1CN(Cc2c[nH]c3c(N)ncnc23)C[C@@H]1O [MT-DADMe-ImmA] in this work.
